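Dose response: 5 concentrations. Exposure: 48 h. Format: 96-well plates. Endpoint: linear interpolation; highest concentration if not reached. GI50 is the concentration that inhibits growth by half.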 Activity calls are given as the source filed them. Cut-off read from the data, not from the text of the source: active = GI50 up to about 1.1 µM and inactive = higher. Bounds are passed on as bounds.

We go through eight compounds from ChEMBL document CHEMBL1201862, “PubChem BioAssay data set” (2004).

Holding throughout (test): inhibition of tumour cell growth, NCI panel, 48 h
The test system of assay [1] is SF-268.
Assay [2] relates to SNB-19.
Assay [3] has as its system PC-3.
The subject of assay [4] is LOX IMVI.
Assay [5] deals with RPMI-8226.
Assay [6] relates to HCT-116.
The subject of assay [7] is BT-549.
The test system of assay [8] is MDA-MB-435.
Assay [9] concerns OVCAR-8.
The subject of assay [10] is TK-10.
Assay [11] concerns MCF7.
Assay [12] deals with EKVX.
Assay [13] has as its system SR.
Assay [14] deals with SK-MEL-5.
The test system of assay [15] is U-251.
In assay [16] the test system is UACC-257.
In assay [17] the test system is HCT-15.
Assay [18] relates to SN12C.
The test system of assay [19] is MDA-MB-231.
For assay [20], the system named is T47D.

For `O=C(CN1CCCC1=O)CS(=O)(=O)c1ccccc1`, the GI50 in assay [1], in assay [2], in [3], in [4], in assay [5] and in assay [6] was > 100 µM (inactive) each time. Also, the GI50 in assay [7], in [8], in assay [9], in assay [10], in assay [11] and in [12] was > 100 µM (inactive) in each case. Besides, the GI50 in [13], in [14], in assay [15] and in [16] was > 100 µM (inactive) throughout.

Take `O=Cc1[nH]c(=O)[nH]c(=O)c1C(=O)O`: the GI50 in assay [1], in [2], in [3], in [4], in [5] and in assay [6] was > 100 µM (inactive) each time. Moreover, the GI50 was above 100 µM in assay [17]; > 100 µM (inactive) in [8]; > 100 µM (inactive) in assay [9]; > 100 µM (inactive) in assay [18]; > 100 µM (inactive) in assay [19]; > 100 µM (inactive) in assay [20]. The GI50 in assay [10], in assay [11], in assay [12], in assay [13], in assay [14] and in assay [15] was > 100 µM (inactive) in each case. Also, in assay [16], the GI50 was > 100 µM (inactive).

In the case of `O=C1CN(c2ccc(Cl)cc2)C(=O)CN1NCNN1CC(=O)N(c2ccc(Cl)cc2)CC1=O`, the GI50 in assay [1], in assay [2], in [3], in assay [5], in assay [6] and in [7] was > 100 µM (inactive) in each case. Further, the GI50 is above 100 µM in assay [17]; > 100 µM (inactive) in assay [8]; > 100 µM (inactive) in assay [9]; > 100 µM (inactive) in assay [18]; > 100 µM (inactive) in assay [10]; > 100 µM (inactive) in [11]. Moreover, the GI50 in assay [12], in [13], in [14], in assay [15] and in [16] was > 100 µM (inactive) throughout.

Turning to `COc1cc(NS(C)(=O)=O)ccc1N1Cc2c[nH]c3ccc4nc(C)cc1c4c23`, the GI50 in assay [1] is 22.7 µM (inactive); in assay [2] it was 18.7 µM (inactive); in assay [3], > 100 µM (inactive); in assay [4] it was > 100 µM (inactive); in assay [5] it was 31.5 µM (inactive); in [6], 62.8 µM (inactive). Besides, the GI50 in [7] is > 100 µM (inactive); in assay [17] it was above 100 µM; in assay [8], 17.5 µM (inactive); in assay [9], 33 µM (inactive); in assay [19] it was 64 µM (inactive); in assay [10], > 100 µM (inactive). Moreover, the GI50 in [11] is 52.6 µM (inactive); in assay [12], 67.5 µM (inactive); in [14], 97.7 µM (inactive); in assay [15], 32.3 µM (inactive); in [16], > 100 µM (inactive).

Take `Cc1csc2[n+]1C(=O)/C(=C\c1ccc([N+](=O)[O-])cc1)S2`: the GI50 in assay [1] was 20.3 µM (inactive); in assay [2], 25.4 µM (inactive); in assay [3] it was 25.4 µM (inactive); in assay [4] it was 22.5 µM (inactive); in [5], 16.6 µM (inactive); in assay [6], 17.8 µM (inactive). In addition, the GI50 in [8] is 24.9 µM (inactive); in assay [9], 22.4 µM (inactive); in assay [18] it was 37.4 µM (inactive); in assay [19], 27.3 µM (inactive); in assay [20], 21.2 µM (inactive); in assay [10], 25.2 µM (inactive). Also, the GI50 in assay [11] was 32.7 µM (inactive); in assay [13], 32.5 µM (inactive); in assay [14] it was 26.2 µM (inactive); in assay [15], 18.7 µM (inactive); in assay [16], 29.9 µM (inactive).

As for `COC(C)(C)C1=CCC(C)CC1` (stereo not drawn), the GI50 in assay [1], in assay [2], in assay [3], in assay [5], in assay [6] and in [7] was > 100 µM (inactive) in each case. For the same compound, the GI50 in assay [17] was above 100 µM; in [8], > 100 µM (inactive); in assay [9] it was > 100 µM (inactive); in [18], > 100 µM (inactive); in assay [10], > 100 µM (inactive); in [11], 41.8 µM (inactive). In addition, the GI50 was > 100 µM (inactive) in assay [12]; 24 µM (inactive) in assay [13]; > 100 µM (inactive) in assay [14]; > 100 µM (inactive) in [15]; > 100 µM (inactive) in assay [16].

On to `O=C1/C(=C/c2ccccc2)N=C(c2ccccc2)N1C1Nc2cc3c(cc2S1)NC(N1C(=O)/C(=C/c2ccccc2)N=C1c1ccccc1)S3` (stereo not drawn), for which the GI50 in [1] is 5.61 µM (inactive); in [3] it was 11.8 µM (inactive); in assay [4], 3.74 µM (inactive); in assay [5], 5.4 µM (inactive); in [6], 32.5 µM (inactive); in [17], 24.2 µM. The GI50 in assay [8] was 13.6 µM (inactive); in assay [9], 4.33 µM (inactive); in assay [19], 1.82 µM (inactive); in assay [20], 30.4 µM (inactive); in assay [10], 30.5 µM (inactive); in assay [11], 22.3 µM (inactive). The GI50 was 95.7 µM (inactive) in [12]; 5.28 µM (inactive) in [13]; 30.3 µM (inactive) in assay [14]; 4.72 µM (inactive) in [15]; 3.78 µM (inactive) in assay [16].

For the compound `COc1ccc(OC)c(CNc2ccc(C(=O)O)cc2)c1`, the GI50 in assay [1], in [2], in assay [3], in assay [4], in assay [5] and in [6] was > 100 µM (inactive) each time. Besides, the GI50 in [7] was > 100 µM (inactive); in assay [17] it was above 100 µM; in [8], > 100 µM (inactive); in assay [9], > 100 µM (inactive); in [19], > 100 µM (inactive); in [10], > 100 µM (inactive). The GI50 in assay [11], in assay [12], in [13], in assay [14], in assay [15] and in assay [16] was > 100 µM (inactive) in each case.
